Where a SMILES comes first, the peptide text is derived from it. Bridges are numbered along the chain shown (N, C = ends). [ ]: non-standard residue; d: D form. The star is where a group is joined. ξ: configuration not given here. Phe(4-COOH) = N[C@@H](Cc1ccc(C(=O)O)cc1)C(=O)O; Phe(4-tBu) = CC(C)(C)c1ccc(C[C@H](N)C(=O)O)cc1; Bip = N[C@@H](Cc1ccc(-c2ccccc2)cc1)C(=O)O; Phe(3-Me) = Cc1cccc(C[C@H](N)C(=O)O)c1; Val(3-OH) = CC(C)(O)[C@H](N)C(=O)O; hArg = N=C(N)NCCCC[C@H](N)C(=O)O; 3Pal = N[C@@H](Cc1cccnc1)C(=O)O; 4Pal = N[C@@H](Cc1ccncc1)C(=O)O; Cha = N[C@@H](CC1CCCCC1)C(=O)O; Cit = NC(=O)NCCC[C@H](N)C(=O)O; NMeN = CN[C@@H](CC(N)=O)C(=O)O; dNle = CCCC[C@@H](N)C(=O)O; dDab = NCC[C@@H](N)C(=O)O; Carboxymethyl = O=C(O)C*; Nle = CCCC[C@H](N)C(=O)O; Orn = NCCC[C@H](N)C(=O)O; Pra = C#CC[C@H](N)C(=O)O; Dab = NCC[C@H](N)C(=O)O; Dap = NC[C@H](N)C(=O)O; ξPra = C#CCC(N)C(=O)O

This assay addresses T1, human PD-1 / PD-L1-Ig binding on Jurkat cell line over-expressing human PD-1 (Jurkat-PD-1) (Homo sapiens, UniProt Q15116).
T1 construct: expressed in transfected cells; host or cells: Jurkat
The experiment in a line: Jurkat-PD-1 Cell Binding High-Content Screening Assay (CBA). The class given is cell-based. Particulars: Jurkat-PD-1 cells, PE-labeled PD-L1-Ig 20 nM final; read-out: Jurkat HPD1_PDL1 IC50. Summed up: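 Read-out: high-content imaging of PE-tagged PD-L1-Ig bound to Jurkat cells overexpressing human PD-1, after fixation with 4% paraformaldehyde and Hoechst 33342 nuclear staining. Ligand was used at 20 nM final for 1 hour, after a 2 h compound exposure at 37° C in serum-containing DMEM.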

T1 sequence (Q15116 25-288): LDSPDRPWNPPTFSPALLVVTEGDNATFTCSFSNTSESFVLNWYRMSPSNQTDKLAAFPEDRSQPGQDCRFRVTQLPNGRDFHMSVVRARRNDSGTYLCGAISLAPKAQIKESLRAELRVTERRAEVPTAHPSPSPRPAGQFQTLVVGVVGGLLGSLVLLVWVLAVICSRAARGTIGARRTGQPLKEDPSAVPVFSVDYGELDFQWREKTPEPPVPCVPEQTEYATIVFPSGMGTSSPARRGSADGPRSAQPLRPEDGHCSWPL

Consider `CC(C)C[C@@H]1NC(=O)[C@H](CCN)NC(=O)[C@@H](CC(C)C)NC(=O)[C@@H](C)NC(=O)[C@H](C(C)C)NC(=O)[C@H](Cc2ccc(-c3ccccc3)cc2)NC(=O)[C@H](C(C)C)NC(=O)[C@H](Cc2c[nH]c3ccccc23)NC(=O)[C@H](CC(=O)O)NC(=O)[C@H](Cc2ccc(O)cc2)NC(=O)[C@H](CC(N)=O)NC(=O)CSC[C@@H](C(=O)N[C@@H](C)C(N)=O)NC(=O)[C@H]([C@@H](C)O)NC(=O)[C@H](C(C)C)NC1=O` [Compound 1026] ({CH2CO}-NYDWV[Bip]V[dA][dL][Dab]LVTCA-NH2; thioether N-14), for which the IC50 – broadly, the concentration needed to halve the response being measured – came out at 10.8 nM.
The result for `C#CCC(NC(=O)[C@H](CCN)NC(=O)[C@@H]1CSCC(=O)N[C@@H](Cc2ccncc2)C(=O)N[C@@H](Cc2ccc(OCC(=O)O)cc2)C(=O)N[C@@H](CC(=O)O)C(=O)N[C@@H](Cc2c[nH]c3ccccc23)C(=O)N[C@@H](C(C)C)C(=O)N[C@@H](Cc2ccc(-c3ccccc3)cc2)C(=O)N[C@@H]([C@@H](C)CC)C(=O)N[C@@H](CCCN)C(=O)N[C@H](CC(C)C)C(=O)N[C@@H](CCN)C(=O)N[C@@H](CC(C)C)C(=O)N[C@@H](C(C)C)C(=O)N[C@@H]([C@@H](C)O)C(=O)N1)C(N)=O` (stereo partly drawn) [Compound 1759] ({CH2CO}-[4Pal]Y(Carboxymethyl)DWV[Bip]I[Orn][dL][Dab]LVTC[Dab][ξPra]-NH2; thioether N-14) reads 7.2 nM.
The result for `CCC(C)[C@@H]1NC(=O)[C@H](Cc2ccc(-c3ccccc3)cc2)NC(=O)[C@H](C(C)C)NC(=O)[C@H](Cc2cccc(C)c2F)NC(=O)[C@H](CC(=O)O)NC(=O)[C@H](Cc2ccc(OCC(=O)O)cc2)NC(=O)[C@H](CN)NC(=O)CSC[C@@H](C(=O)N[C@@H](C)C(N)=O)NC(=O)[C@H]([C@@H](C)O)NC(=O)[C@H](C(C)C)NC(=O)[C@H](CC2CCCCC2)NC(=O)[C@H](CCN)NC(=O)[C@@H](CC(C)C)NC(=O)[C@H](CCCN)NC1=O` (some centres unmarked) [Compound 2243] reads 16.2 nM; that for `CCCC[C@H]1NC(=O)[C@H](CCCN)NC(=O)[C@H]([C@@H](C)CC)NC(=O)[C@H](Cc2ccc(-c3ccccc3)cc2)NC(=O)[C@H](C(C)C)NC(=O)[C@H](Cc2c[nH]c3ccccc23)NC(=O)[C@H](CC(=O)O)NC(=O)[C@H](Cc2ccc(O)cc2)NC(=O)[C@H](CC(N)=O)NC(=O)CSC[C@@H](C(=O)N[C@@H](C)C(N)=O)NC(=O)[C@H]([C@@H](C)O)NC(=O)[C@H](C(C)C)NC(=O)[C@H](CC2CCCCC2)NC(=O)[C@H](CCN)NC1=O` [Compound 1712] ({CH2CO}-NYDWV[Bip]I[Orn][dNle][Dab][Cha]VTCA-NH2; thioether N-14), 25.1 nM.
The same measure for `C#CC[C@H](NC(=O)[C@H](CCN)NC(=O)[C@@H]1CSCC(=O)N[C@@H](CN)C(=O)N[C@@H](Cc2ccc(OCC(=O)O)cc2)C(=O)N[C@@H](CC(=O)O)C(=O)N[C@@H](Cc2cccc(C)c2)C(=O)N[C@@H](C(C)C)C(=O)N[C@@H](Cc2ccc(-c3ccccc3)cc2)C(=O)N[C@@H](CCCNC(N)=O)C(=O)N[C@@H](CCCN)C(=O)N[C@H](CC(C)C)C(=O)N[C@@H](CCN)C(=O)N[C@@H](CC2CCCCC2)C(=O)N[C@@H](C(C)C)C(=O)N[C@@H]([C@@H](C)O)C(=O)N1)C(N)=O` [Compound 2261] ({CH2CO}-[Dap]Y(Carboxymethyl)D[Phe(3-Me)]V[Bip][Cit][Orn][dL][Dab][Cha]VTC[Dab][Pra]-NH2; thioether N-14): 16 nM; for `CC(C)C[C@H]1NC(=O)[C@H](CCCN)NC(=O)[C@H](C(C)C)NC(=O)[C@H](Cc2ccc(-c3ccccc3)cc2)NC(=O)[C@H](C(C)C)NC(=O)[C@H](Cc2c[nH]c3ccccc23)NC(=O)[C@H](CC(=O)O)NC(=O)[C@H](Cc2ccc(OCC(=O)O)cc2)NC(=O)[C@H](CCCCNC(=N)N)NC(=O)CSC[C@@H](C(=O)N(C)[C@@H](CC(N)=O)C(N)=O)NC(=O)[C@H](CO)NC(=O)[C@H](C(C)C)NC(=O)[C@H](CC2CCCCC2)NC(=O)[C@H](CCN)NC1=O` [Compound 2567] ({CH2CO}-[hArg]Y(Carboxymethyl)DWV[Bip]V[Orn][dL][Dab][Cha]VSC[NMeN]-NH2; thioether N-14): 23.9 nM; for `Cc1cccc(C[C@@H]2NC(=O)[C@H](CC(=O)O)NC(=O)[C@H](Cc3ccc(C(=O)O)cc3)NC(=O)[C@H](CN)NC(=O)CSC[C@@H](C(=O)N[C@@H](CCN)C(N)=O)NC(=O)[C@@H](CCN)NC(=O)[C@H](C(C)C)NC(=O)[C@H](CC3CCCCC3)NC(=O)[C@H](CCN)NC(=O)[C@@H](CC(C)C)NC(=O)[C@H](CCCN)NC(=O)[C@H](C(C)C)NC(=O)[C@H](Cc3ccc(-c4ccccc4)cc3)NC(=O)[C@H](C(C)C)NC2=O)c1` [Compound 2029] ({CH2CO}-[Dap][Phe(4-COOH)]D[Phe(3-Me)]V[Bip]V[Orn][dL][Dab][Cha]V[dDab]C[Dab]-NH2; thioether N-14): 4.1 nM.
Consider `C#CC[C@H](NC(=O)[C@H](CCCN)NC(=O)[C@@H]1CSCC(=O)N[C@@H](CN)C(=O)N[C@@H](Cc2ccc(OCC(=O)O)cc2)C(=O)N[C@@H](CC(=O)O)C(=O)N[C@@H](Cc2cccc(C)c2)C(=O)N[C@@H](C(C)C)C(=O)N[C@@H](Cc2ccc(-c3ccccc3)cc2)C(=O)N[C@@H](C(C)C)C(=O)N[C@@H](CCCN)C(=O)N[C@H](CC(C)C)C(=O)N[C@@H](CCN)C(=O)N[C@@H](CC2CCCCC2)C(=O)N[C@@H](C(C)C)C(=O)N[C@@H]([C@@H](C)O)C(=O)N1)C(N)=O` [Compound 2017] ({CH2CO}-[Dap]Y(Carboxymethyl)D[Phe(3-Me)]V[Bip]V[Orn][dL][Dab][Cha]VTC[Orn][Pra]-NH2; thioether N-14), for which the IC50 came out at 11.6 nM.
The same measure for `CC(C)C[C@H]1NC(=O)[C@H](CCCN)NC(=O)[C@H](C(C)C)NC(=O)[C@H](Cc2ccc(-c3ccccc3)cc2)NC(=O)[C@H](C(C)C)NC(=O)[C@H](Cc2c[nH]c3ccccc23)NC(=O)[C@H](CC(=O)O)NC(=O)[C@H](Cc2ccc(OCC(=O)O)cc2)NC(=O)[C@H](Cc2ccc(OCC(=O)O)cc2)NC(=O)CSC[C@@H](C(=O)N[C@@H](C)C(N)=O)NC(=O)[C@H]([C@@H](C)O)NC(=O)[C@H](C(C)C)NC(=O)[C@H](Cc2ccccc2)NC(=O)[C@H](CCN)NC1=O` [Compound 1663] ({CH2CO}-Y(Carboxymethyl)Y(Carboxymethyl)DWV[Bip]V[Orn][dL][Dab]FVTCA-NH2; thioether N-14): 11.1 nM.
The result for `CC(C)C[C@H]1NC(=O)[C@H](CCCN)NC(=O)[C@H](CCCNC(N)=O)NC(=O)[C@H](Cc2ccc(-c3ccccc3)cc2)NC(=O)[C@H](C(C)C)NC(=O)[C@H](Cc2c[nH]c3ccccc23)NC(=O)[C@H](CC(=O)O)NC(=O)[C@H](Cc2ccc(C(C)(C)C)cc2)NC(=O)[C@H](CN)NC(=O)CSC[C@@H](C(=O)N[C@@H](C)C(N)=O)NC(=O)[C@H]([C@@H](C)O)NC(=O)[C@H](C(C)C)NC(=O)[C@H](CC2CCCCC2)NC(=O)[C@H](CCN)NC1=O` [Compound 2106] ({CH2CO}-[Dap][Phe(4-tBu)]DWV[Bip][Cit][Orn][dL][Dab][Cha]VTCA-NH2; thioether N-14) reads 93.4 nM; that for `CC(C)[C@@H]1NC(=O)[C@H](Cc2c[nH]c3ccccc23)NC(=O)[C@H](CC(=O)O)NC(=O)[C@H](Cc2ccncc2)NC(=O)[C@H](Cc2ccc(OCC(=O)O)cc2)NC(=O)CSC[C@@H](C(=O)N[C@@H](C)C(N)=O)NC(=O)[C@H]([C@@H](C)O)NC(=O)[C@H](C(C)C)NC(=O)[C@H](CC2CCCCC2)NC(=O)[C@H](CCN)NC(=O)[C@@H](Cc2ccc(O)cc2)NC(=O)[C@H](CCCN)NC(=O)[C@H](CCC(=O)O)NC(=O)[C@H](Cc2ccc(-c3ccccc3)cc2)NC1=O` [Compound 1447] ({CH2CO}-Y(Carboxymethyl)[4Pal]DWV[Bip]E[Orn][dY][Dab][Cha]VTCA-NH2; thioether N-14), 29.8 nM.
The result for `Cc1cccc(C[C@@H]2NC(=O)[C@H](CC(=O)O)NC(=O)[C@H](Cc3ccc(OCC(=O)O)cc3)NC(=O)[C@H](Cc3cccnc3)NC(=O)CSC[C@@H](C(N)=O)NC(=O)[C@H]([C@@H](C)O)NC(=O)[C@H](C(C)C)NC(=O)[C@H](CC(C)C)NC(=O)[C@H](CCN)NC(=O)[C@@H](CC(C)C)NC(=O)[C@H](CCCN)NC(=O)[C@H](CCCNC(N)=O)NC(=O)[C@H](Cc3ccc(-c4ccccc4)cc3)NC(=O)[C@H](C(C)C)NC2=O)c1` [Compound 1655] ({CH2CO}-[3Pal]Y(Carboxymethyl)D[Phe(3-Me)]V[Bip][Cit][Orn][dL][Dab]LVTC-NH2; thioether N-14) reads 280 nM.
`C#CC[C@H](NC(=O)[C@@H](C)NC(=O)[C@@H]1CSCC(=O)N[C@@H](Cc2ccncc2)C(=O)N[C@@H](Cc2ccc(OCC(=O)O)cc2)C(=O)N[C@@H](CC(=O)O)C(=O)N[C@@H](Cc2cccc(C)c2)C(=O)N[C@@H](Cc2ccc(OCC(=O)O)cc2)C(=O)N[C@@H](Cc2ccc(-c3ccccc3)cc2)C(=O)N[C@@H](Cc2ccc(OCC(=O)O)cc2)C(=O)N[C@@H](CCCN)C(=O)N[C@H](CC(C)C)C(=O)N[C@@H](CCN)C(=O)N[C@@H](CC2CCCCC2)C(=O)N[C@@H](C(C)(C)O)C(=O)N[C@@H](CO)C(=O)N1)C(N)=O` [Compound 2328] ({CH2CO}-[4Pal]Y(Carboxymethyl)D[Phe(3-Me)]Y(Carboxymethyl)[Bip]Y(Carboxymethyl)[Orn][dL][Dab][Cha][Val(3-OH)]SC[dA][Pra]-NH2; thioether N-14): the IC50 stood at 632 nM.
Turning to `CCCC[C@@H]1NC(=O)[C@H](CCN)NC(=O)[C@@H](CC(C)C)NC(=O)[C@H](CCCN)NC(=O)[C@H](C(C)C)NC(=O)[C@H](Cc2ccc(-c3ccccc3)cc2)NC(=O)[C@H](C(C)C)NC(=O)[C@H](Cc2cccc(C)c2)NC(=O)[C@H](CC(=O)O)NC(=O)[C@H](Cc2ccc(OCC(=O)O)cc2)NC(=O)[C@H](Cc2ccncc2)NC(=O)CSC[C@@H](C(=O)N[C@@H](C)C(N)=O)NC(=O)[C@H]([C@@H](C)O)NC(=O)[C@H](C(C)C)NC1=O` [Compound 1199] ({CH2CO}-[4Pal]Y(Carboxymethyl)D[Phe(3-Me)]V[Bip]V[Orn][dL][Dab][Nle]VTCA-NH2; thioether N-14), the IC50 was determined as 4.1 nM.

The record behind these values is patent US20250163104A1, “MACROCYCLIC IMMUNOMODULATORS” (priority 2021, published 2025).
